Assays:
[1] = tested on: patients genetically diagnosed with Tay-Sachs disease; experiment: Case studies of Tay-Sachs disease patients (SARA, SCAFI, MoCA, mRDS, EQ-5D-5L); format: in vivo, human
Text: For example, to evaluate overall neurological status, mDRS, a four-domain scale (ambulation, manipulation, language and swallowing), may be applied. Cerebellar function may be evaluated using SARA, an eight-item clinical rating scale (gait, stance, sitting, speech, fine motor function and taxis; range 0-40, where 0 is the best neurological status and 40 the worst), and SCAFI, comprising the 8-m-Walking-Time (8MW; performed by having patients walking twice as quickly as possible from one line to another excluding turning), 9-Hole-Peg-Test (9HPT) and the number of “PATA” repetitions over 10 s. Subjective impairment and quality of life may be evaluated using the EQ-5D-5L questionnaire and VAS. To assess ocular motor function, 3-dimensional videooculography (EyeSeeCam) may be used to measure the peak velocity of saccades, gain of smooth pursuit, peak slow phase velocity of gaze-evoked nystagmus (gaze-holding function), peak slow phase velocity of optokinetic nystagmus, and gain of horizontal vestibulo-ocular reflex. To evaluate the cognitive state, WAIS-R or WISC-IV, and MoCA, assessing different cognitive domains, including attention and concentration, executive functions, memory, language, visuoconstructional skills, conceptual thinking, calculations, and orientation with a maximum of 30 points and a cut-off score of 26, may be used. The skilled person will know how to perform these and other such tests.
In particular, the patient was not able to stand or walk, could do single steps with strong support, had distinct postural instability, ocular movement disorder, dysphagia and dysarthria, and mild cognitive function disorder.
(§1) Before treatment was commenced, examination of the patient indicated a Scale for Assessment and Rating of Ataxia (SARA) score of 15.5/40. In addition, results from the patient's Spinocerebellar Ataxia Functional Index (SCAFI) analysis were: • Mean 8-meters Walking Test (8MW): 21.6 s • MW 9-Hole Pegboard Test Dominant (9HPTD) (right): 48.3 s • MW 9-Hole Pegboard Test Non-Dominant (9HPTND): 44.9 s • MW PATA Word Test: 20 • Montreal Cognitive Assessment (MoCA): 18/30
The day following this examination, the patient was started on therapy with acetyl-leucine, at a dose of 3 g per day for the first week, followed by a dose of 5 g per day for the second week onwards.
In particular, walking was not possible without support, and the patient suffered from dysphagia and speech disorder, ocular movement disorder, and mild cognitive function disorder.
as §1, with “10.5/40.” for “15.5/40.”, “12.5” for “21.6”, “21.5” for “48.3”, “35.5” for “44.9”, “18” for “20”, “21/30” for “18/30”
The day of the examination, the patient was started on therapy with acetyl-leucine at a dose of 3 g per day for the first week, followed by a dose of 5 g per day for the second week onwards.
The patient in this case study was a person who was genetically diagnosed with Tay-Sachs disease and who had epileptic cramps (tonic-clonic, about 10 seconds, self-limiting) almost every day before falling asleep, ocular movement disorder, anarthria, distinct problems in cognitive function and concentration (neurological examination was not possible), was not able to stand or walk by themself, and was very limited in daily activities (eating, washing or dressing themself was not possible).
Before treatment was commenced, examination of the patient indicated a Scale for Assessment and Rating of Ataxia (SARA) score of 36/40, a mRDS score of 18/24, a EQ-5D-5L visual scale of 50, and a 8MWT of 18.1 (only with strong support). […]

[2] = tested on: AB variant of Tay-Sachs disease patient fibroblasts; experiment: Glycosphingolipid (GSL) levels by HPLC in AB variant of Tay-Sachs disease patient fibroblasts; format: cell-based, human; conditions: 1 mM for 6 days
[3] = tested on: Npc1^−/− (BALB/cNctr-Npc1^m1N/J) mouse; experiment: In vivo mouse study in Npc1-/- mouse model of NPC (coat, weight, CatWalk gait, open field motor function, lifespan)
Protocol: Separate groups of Npc1^-/- and Npc1^+/+ mice were left untreated, as controls. […] Animals were weighed twice a week. Weights were averaged (mean) across all mice in each group and compared. Gait analysis was performed on mice at eight weeks of age using a CatWalk® 15.0 system according to manufacturer's instructions (Noldus, Nottingham, UK). Five runs were recorded per animal. CatWalk® parameters measured were: • 1. Stand Mean: average duration (s) of paws in contact with glass plate; • 2. Step Cycle: duration (s) between two consecutive contacts of the same paw; • 3. Duty Cycle: percentage of time paws in contact with plate compared with time to complete a step cycle; • 4. Step Sequence (AB): percentage of time spent walking in LF-RH-RF-LH alternating pattern (LF: left front; RH: right hind; RF: right front; LH left hind); • 5. Cadence: step per seconds in a trial; • 6. Diagonal Support: percentage of time with simultaneous contact of diagonal paws with the glass plate (RF&LH or RH&LF). Motor Function Analysis Motor function analysis was performed on mice at eight and nine weeks of age using an Open Field Activity Monitor according to manufacturer's instructions (Linton Instruments, Amlogger Software). Each mouse was placed in a plastic cage with bedding and analysed for five minutes. Rears were counted manually. Motor function parameters measured were: • 1. Centre Rearing: mice rearing on hind legs unsupported; • 2. Rearing: mice rearing on hind legs with and without the support of cage walls; • 3. Activity: regular movement of the animal including walks; • 4. Front to Back (FR) count: movement of the animal from front to back of the cage; • 5. Active Time: duration (s/min) of activeness regardless of movement; • 6. Mobile Time: duration (s/min) of mobility; • 7. Rearing Time: duration of any rearing.

[4] = tested on: Tay-Sachs disease patient fibroblasts; experiment: Glycosphingolipid (GSL) levels by HPLC in Tay-Sachs disease patient fibroblasts; format: cell-based, human; conditions: 1 mM for 6 days, p<0.05

SMILES: CC(=O)NC(CC(C)C)C(=O)O (racemic) [acetyl-DL-leucine]
- Overall change in symptoms ([1]; Patient 1): improvement in symptoms
- SARA ([1]; Patient 1, 3 g then 5 g per day, after 4 months): 17/40
- MoCA ([1]; Patient 1, after 4 months): 22/30
- Clinical re-examination findings ([1]; Patient 1, after four months): stable condition with slightly improved cognitive function but had deterioration of stance, gait and fine motor function
- Clinical re-examination findings ([1]; Patient 1, after one month): improved fine motor skills and reduced hand tremor
- MoCA ([1]; Patient 1, after one month): 21/30
- SARA ([1]; Patient 2, 3 g then 5 g per day, after one month): 5/40
- Clinical re-examination findings ([1]; Patient 2, after one month): increased enunciation, improved postural stability, and enhanced cognitive function
- MoCA ([1]; Patient 2, after one month): 25/30
- SARA ([1]; Patient 3, 1.5 g then 3 g per day, after one month): 33/40
- GSL levels (GSL storage) [2]: trend towards decreased GSL levels
- Delay until display of disease symptoms versus untreated Npc1-/- mice ([3]; Npc1-/- mice treated from weaning): two
- Delay of weight loss symptoms compared to the untreated group ([3]; Npc1-/- mice, 0.1 g/kg from weaning): two
- Gait properties (CatWalk) compared to untreated littermates ([3]; Npc1-/- mice, 0.1 g/kg from weaning, eight weeks of age): significantly improved gait
- Motor function properties (Open Field Activity Monitor) compared to untreated littermates ([3]; Npc1-/- mice, 0.1 g/kg from weaning, nine weeks of age): significantly improved motor function
- Coat condition ([3]; Npc1-/- mice, 0.1 g/kg in chow from weaning, nine weeks of age): smooth and glossy coat
- Lifespan ([3]; Npc1-/- mouse, 0.1 g/kg from 3 weeks of age): small but statistically significant increase in lifespan
- GSL levels (GSL storage) [4]: decrease was statistically significant
